The test system of the test is HCV genotype-1a variant with glutamine 30 changed to glutamate in the NS5A protein. The test is classed as cell-based. As to conditions: test compound titrated with BMS-790052 fixed at 200 nM; genotype 1a Q30E replicon. In a few lines: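 Synergy was assessed by combining several fixed amounts of an NS5A-targeting compound with a titration of the second compound of interest.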
(In general: A replicon is a self-replicating genome or part of one, used to study replication in cells.)

The structures appear in SMILES notation.

Regarding `O=C([C@@H]1C[C@H]1c1ccccc1)N1CCC[C@H]1c1ncc(-c2ccc(-c3ccc(-c4cnc([C@@H]5CCCN5C(=O)[C@@H]5C[C@H]5c5ccccc5)[nH]4)cc3)cc2)[nH]1` [Compound S-161], the “Fold-Synergistic 1a (Q30E)” value is >10 fold. The value for `CC(C)(C)[C@H](NC(=O)C(C)(C)C(F)(F)F)c1nc(-c2ccc(-c3ccc(-c4c[nH]c([C@@H](NC(=O)C(C)(C)C(F)(F)F)C(C)(C)C)n4)cc3)cc2)c[nH]1` [Compound P-31] was >100 fold; that for `CCCCOC(=O)N1CCC[C@H]1c1ncc(-c2ccc(-c3ccc(-c4cnc([C@@H]5CCCN5C(=O)OCCCC)[nH]4)cc3)cc2)[nH]1` [Compound S-219] was >10 fold. To `CC(C)[C@H](NC(=O)c1cc(Cl)ccc1F)c1nc(-c2ccc(-c3ccc(-c4c[nH]c([C@@H](NC(=O)c5cc(Cl)ccc5F)C(C)C)n4)c(F)c3)cc2)c[nH]1.O=C(O)C(F)(F)F` [Compound N-88] belongs >100 fold; to `CC(C)CC(=O)N[C@@H](c1nc(-c2ccc(-c3ccc(-c4c[nH]c([C@H](NC(=O)CC(C)C)C(C)(C)C)n4)cc3)cc2)c[nH]1)C(C)(C)C` [Compound N-67], >10 fold; to `CC(C)[C@H](NC(=O)c1coc2ccccc12)c1ncc(-c2ccc(-c3ccc(-c4cnc([C@@H](NC(=O)c5coc6ccccc56)C(C)C)[nH]4)cc3)cc2)[nH]1` [Compound P-100], >100 fold. For `CC(C)[C@H](NC(=O)c1ccc2nccnc2c1)c1ncc(-c2ccc(-c3ccc(-c4cnc([C@@H](NC(=O)c5ccc6nccnc6c5)C(C)C)[nH]4)cc3)cc2)[nH]1` [Compound S-19], the “Fold-Synergistic 1a (Q30E)” value is given as >100 fold. To `CC(C)(C)[C@H](NC(=O)C1CCC(F)(F)CC1)c1nc(-c2ccc(-c3ccc(-c4c[nH]c([C@@H](NC(=O)C5CCC(F)(F)CC5)C(C)(C)C)n4)cc3)cc2)c[nH]1` [Compound N-47] belongs >100 fold. To `CC(C)(C(=O)N[C@H](c1nc(-c2ccc(-c3ccc(-c4cnc([C@@H](NC(=O)C(C)(C)C5CC5)C(C)(C)C)[nH]4)cc3)cc2)c[nH]1)C(C)(C)C)C1CC1` [Compound B-167] belongs >100 fold; to `CC(C)[C@H](NC(=O)c1cc(Cl)ccc1F)c1ncc(-c2ccc(-c3ccc(-c4cnc([C@@H](NC(=O)c5cc(Cl)ccc5F)C(C)C)[nH]4)cc3)cc2)[nH]1` [Compound Y-24], >100 fold. The value for `CC(C)(C)[C@H](NC(=O)C1CCC(F)(F)CC1)c1ncc(-c2ccc(-c3ccc(-c4cnc([C@@H](NC(=O)C5CCC(F)(F)CC5)C(C)(C)C)[nH]4)s3)cc2)[nH]1` [Compound B57] was >100 fold; that for `CC(C)[C@H](NC(=O)C(=O)C(C)(C)C(F)F)c1ncc(-c2ccc(-c3ccc(-c4cnc([C@@H](NC(=O)C(=O)C(C)(C)C(F)F)C(C)C)[nH]4)cc3)cc2)[nH]1` [Compound P-124] was >100 fold. In the case of `CC(C)(C)[C@H](NC(=O)C1(C(F)(F)F)CCC1)c1nc(-c2ccc(-c3ccc(-c4c[nH]c([C@@H](NC(=O)C5(C(F)(F)F)CCC5)C(C)(C)C)n4)cc3)cc2)c[nH]1` [Compound L-129], the “Fold-Synergistic 1a (Q30E)” value is >100 fold. To `CC(C)(C)[C@H](NC(=O)C(C)(O)C1(C)CC1)c1nc(-c2ccc(-c3ccc(-c4c[nH]c([C@@H](NC(=O)C(C)(O)C5(C)CC5)C(C)(C)C)n4)cc3)cc2)c[nH]1` (stereo partly drawn) [Compound L-93b] belongs >100 fold; to `COC(=O)NC(C(=O)N1CCCC1c1ncc(-c2ccc(-c3ccc(-c4cnc(C(NC(=O)C(C)(C)C)C(C)(C)C)[nH]4)cc3)cc2)[nH]1)C(C)C` (stereo not drawn) [Compound B-195], >10 fold. To `Cc1ccc(S(=O)(=O)NC(c2ncc(-c3ccc(-c4ccc(-c5cnc([C@@H](NS(=O)(=O)c6ccc(C)cc6)C(C)C)[nH]5)cc4)cc3)[nH]2)C(C)C)cc1` (stereo partly drawn) [Compound Y-58] belongs >100 fold; to `CC(C)(C)[C@H](NC(=O)[C@@]1(C)CCC(F)(F)CO1)c1ncc(-c2ccc(-c3ncc(-c4cnc([C@@H](NC(=O)[C@@]5(C)CCC(F)(F)CO5)C(C)(C)C)[nH]4)cn3)cc2)[nH]1` [Compound Y-84, (R)—N—((S)-1-(5-(2-(4-(2-((S)-1-((R)-5,5-difluoro-2-methyltetrahydro-2H-pyran-2-carboxamido)-2,2-dimethylpropyl)-1H-imidazol-5-yl)phenyl)pyrimidin-5-yl)-1H-imidazol-2-yl)-2,2-dimethylpropyl)-5,5-difluoro-2-methyltetrahydro-2H-pyran-2-carboxamide], >100 fold; to `CCCC[C@@H](CC(=O)OC(C)(C)C)C(=O)N[C@H](c1nc(-c2ccc(-c3ccc(-c4c[nH]c([C@@H](NC(=O)[C@@H](CCCC)CC(=O)OC(C)(C)C)C(C)(C)C)n4)cc3)cc2)c[nH]1)C(C)(C)C` [Compound S-260], >100 fold. The value for `Cc1cc(C(=O)N[C@H](c2ncc(-c3ccc(-c4ccc(-c5cnc([C@@H](NC(=O)c6cc(C)oc6C(F)(F)F)C(C)C)[nH]5)cc4)cc3)[nH]2)C(C)C)c(C(F)(F)F)o1` [Compound S-102] was >100 fold; that for `CC(C)CC(=O)NC(C)(C)c1ncc(-c2ccc(-c3ccc(-c4cnc(C(C)(C)NC(=O)CC(C)C)[nH]4)cc3)cc2)[nH]1.O=C(O)C(F)(F)F.O=C(O)C(F)(F)F` [Compound N-26] was <10 fold; that for `CC(C)(C)[C@H](NC(=O)[C@]1(C)C[C@@H](F)CN1)c1nc(-c2ccc(-c3ccc(-c4c[nH]c([C@@H](NC(=O)[C@]5(C)C[C@@H](F)CN5)C(C)(C)C)n4)cc3)cc2)c[nH]1` [Compound W-209] was >100 fold. On to `CC(C)(C)C(NC(=O)C1(O)CCCOC1)c1nc(-c2ccc(-c3ccc(-c4c[nH]c(C(NC(=O)C5(O)CCCOC5)C(C)(C)C)n4)cc3)cc2)c[nH]1` (mixture of isomers) [Compound Y-102], for which the “Fold-Synergistic 1a (Q30E)” value was >100 fold.

As to `CC(C)(C)[C@H](NC(=O)C1CC12CCOCC2)c1ncc(-c2ccc(-c3ccc(-c4cnc([C@@H](NC(=O)C5CC56CCOCC6)C(C)(C)C)[nH]4)cc3)cc2)[nH]1` (single isomer, unassigned) [Compound B71], the “Fold-Synergistic 1a (Q30E)” value is recorded as >100 fold.

On to `CC(C)(C(=O)N[C@H](c1ncc(-c2ccc(-c3ccc(-c4cnc([C@@H](NC(=O)C(C)(C)C5CCOCC5)C(C)(C)C)[nH]4)cc3)cc2)[nH]1)C(C)(C)C)C1CCOCC1` [Compound B98], for which the “Fold-Synergistic 1a (Q30E)” value is given as >100 fold. To `CC(C)(C)[C@H](NC(=O)C1CCC(F)(F)CC1)c1nc2c([nH]1)-c1ccc(-c3ccc4c(ccc5nc([C@@H](NC(=O)C6CCC(F)(F)CC6)C(C)(C)C)[nH]c54)c3)cc1CC2` [Compound B24] belongs >100 fold. To `CC(C)[C@H](NC(=O)C(O)(CF)CF)c1nc(-c2ccc(-c3ccc(-c4c[nH]c([C@@H](NC(=O)C(O)(CF)CF)C(C)C)n4)cc3)cc2)c[nH]1` [Compound N-142] belongs >100 fold; to `CC(C)(C)OC(=O)NC1(C(=O)N[C@H](c2nc(-c3ccc(-c4ccc(-c5c[nH]c([C@@H](NC(=O)C6(NC(=O)OC(C)(C)C)CCOCC6)C(C)(C)C)n5)cc4)cc3)c[nH]2)C(C)(C)C)CCOCC1` [Compound W-132], >100 fold.

The values above are taken from US20160158200A1, “Combinations of Hepatitis C Virus Inhibitors” (priority 2013, published 2016).
